Type in all cases: functional
In test [1] the test system is Blumeria graminis. Kind of test: Fungicidal activity against Blumeria graminis infected compound pre-treated wheat plants assessed as disease preventive activity at 500 ppm measured after 1 or 2 weeks.
Test [2] relates to Blumeria graminis. Kind of test: Fungicidal activity against Blumeria graminis infected compound pre-treated wheat plants assessed as disease preventive activity at 6.2 ppm measured after 1 or 2 weeks.
Test [3] has as its system Blumeria graminis. Kind of test: Fungicidal activity against Blumeria graminis infected compound pre-treated wheat plants assessed as disease preventive activity at 100 ppm measured after 1 or 2 weeks.
Test [4] concerns Blumeria graminis. Kind of test: Fungicidal activity against Blumeria graminis infected compound pre-treated wheat plants assessed as disease preventive activity at 3.1 ppm measured after 1 or 2 weeks.
In test [5] the test system is Blumeria graminis. Kind of test: Fungicidal activity against Blumeria graminis infected compound pre-treated wheat plants assessed as disease preventive activity at 1.5 ppm measured after 1 or 2 weeks.

Structures are written as SMILES.

Turning to `CO/C=C(/C(=O)OC)c1ccccc1CO/N=C(/c1cc(C(F)(F)F)cc(C(F)(F)F)c1)S(C)(=O)=O`, the Activity with Blumeria graminis [1] turned out to be 70%.

With `CO/N=C(\C(=O)OC)c1ccccc1CO/N=C(\C)c1cccc(C(F)(F)F)c1`, the Activity is reported as 100% with Blumeria graminis [2]; 100% in the test with Blumeria graminis [3]; 98% in the test with Blumeria graminis [4]; 75% with Blumeria graminis [5]; 100% with Blumeria graminis [1].

For the molecule `COC(=O)N(OC)c1ccccc1CO/N=C(\SC)c1cc(C(F)(F)F)cc(C(F)(F)F)c1`, the Activity is on record as 65% with Blumeria graminis [2], 90% with Blumeria graminis [3], 30% in the test on Blumeria graminis [4] and 90% in the test on Blumeria graminis [1].

On to `CCS/C(=N\OCc1ccccc1/C(=N\OC)C(=O)OC)c1cc(C(F)(F)F)cc(C(F)(F)F)c1`, for which the Activity in the test with Blumeria graminis [1] stood at 85%.

As for `CO/C=C(/C(=O)OC)c1ccccc1CO/N=C(\N)c1cc(C(F)(F)F)cc(C(F)(F)F)c1`, the Activity was 90% with Blumeria graminis [2]; 95% with Blumeria graminis [3]; 75% in the test with Blumeria graminis [4]; 40% with Blumeria graminis [5]; 100% with Blumeria graminis [1].

Take `COC(=O)N(OC)c1ccccc1CO/N=C(\OC)c1cc(C(F)(F)F)cc(C(F)(F)F)c1`: the Activity is reported as 80% in the test with Blumeria graminis [2]; 100% in the test with Blumeria graminis [3]; 60% with Blumeria graminis [4]; 10% in the test with Blumeria graminis [5]; 100% in the test on Blumeria graminis [1].

For the molecule `CNC(=O)/C(=N/OC)c1ccccc1CO/N=C(\SC)c1cc(C(F)(F)F)cc(C(F)(F)F)c1`, the Activity with Blumeria graminis [2] is given as 40%; with Blumeria graminis [3], 100%; with Blumeria graminis [4], 25%; in the test on Blumeria graminis [1], 100%.

On to `CO/C=C(/C(=O)OC)c1ccccc1CO/N=C(\SC(C)C)c1cc(C(F)(F)F)cc(C(F)(F)F)c1`, for which the Activity in the test on Blumeria graminis [1] is reported as 85%.

As for `CNC(=O)/C(=N/OC)c1ccccc1Oc1ccccc1` [METOMINOSTROBIN], the Activity in the test with Blumeria graminis [2] stood at 95%; in the test on Blumeria graminis [3], 100%; with Blumeria graminis [4] it was 85%; with Blumeria graminis [5], 65%; in the test with Blumeria graminis [1], 100%.

In the case of `CCS/C(=N\OCc1ccccc1/C(=C\OC)C(=O)OC)c1cc(C(F)(F)F)cc(C(F)(F)F)c1`, the Activity in the test on Blumeria graminis [1] stood at 85%.

`CO/N=C(/C(=O)OC)c1ccccc1CO/N=C(\SC(C)C)c1cc(C(F)(F)F)cc(C(F)(F)F)c1`: the Activity with Blumeria graminis [1] is listed as 85%.

As for `CCO/C(=N\OCc1ccccc1/C(=C\OC)C(=O)OC)c1cc(C(F)(F)F)cc(C(F)(F)F)c1`, the Activity in the test with Blumeria graminis [2] came out at 90%; in the test on Blumeria graminis [3] it was 100%; in the test with Blumeria graminis [4], 60%; in the test with Blumeria graminis [5], 35%; with Blumeria graminis [1] it was 100%.

As to `CO/C=C(/C(=O)OC)c1ccccc1CO/N=C(\SC)c1cc(C(F)(F)F)cc(C(F)(F)F)c1`, the Activity in the test with Blumeria graminis [2] was 98%; in the test with Blumeria graminis [3] it was 100%; in the test on Blumeria graminis [4], 93%; in the test on Blumeria graminis [5], 75%; with Blumeria graminis [1] it was 100%.

Turning to `CO/N=C(/C(=O)OC)c1ccccc1CO/N=C(\SC)c1cc(C(F)(F)F)cc(C(F)(F)F)c1`, the results for the Activity in the test on Blumeria graminis [3] and with Blumeria graminis [1] were 80% and 100%, respectively.

For the molecule `CO/C=C(/C(=O)OC)c1ccccc1CO/N=C(/c1cc(C(F)(F)F)cc(C(F)(F)F)c1)[S+](C)[O-]` (configuration not stated), in the test on Blumeria graminis [1], the Activity was found to be 70%.

For the molecule `CO/N=C(/C(=O)OC)c1ccccc1CO/N=C(\N)c1cc(C(F)(F)F)cc(C(F)(F)F)c1`, the Activity in the test on Blumeria graminis [1] is 30%.

On to `CNC(=O)/C(=N/OC)c1ccccc1CO/N=C(\OC)c1cc(C(F)(F)F)cc(C(F)(F)F)c1`, for which, in the test with Blumeria graminis [1], the Activity is 90%.

Take `CO/N=C(/C1=NOCCO1)c1ccccc1CO/N=C(\SC)c1cc(C(F)(F)F)cc(C(F)(F)F)c1`: the Activity came out at 20% in the test with Blumeria graminis [2], 100% in the test with Blumeria graminis [3], 10% in the test on Blumeria graminis [4] and 100% in the test on Blumeria graminis [1].
